{"source": "patent US11571418B2", "about": "“Platinum compounds that inhibit constitutive STAT3 signaling and induce cell cycle arrest and apoptosis of malignant cells” (H. LEE MOFFITT CANCER CENTER AND RESEARCH INSTITUTE, INC., priority 2011, dated 2023)", "system": "NFκB-Luc", "assay": "NFκB promoter-driven luciferase reporter assay", "format": "cell-based", "details": "transient transfection in mouse fibroblasts", "experimental": "FIGS. 3A-3D. Inhibition of Stat3-mediated gene expression by PLATINUM-401. (FIG. 3A) and (FIG. 3B) v-Src-transformed mouse fibroblasts that stably express Stat3-dependent (NIH3T3/v-Src/pLucTKS3) and Stat3-independent (NIH3T3/v-Src/pRLSRE) luciferase reporters or β-galactosidase (β-gal), as well as normal mouse fibroblast (NIH3T3) transiently transfected with pLucTKS3, pGL2-VEGF-Luc, NFkB-Luc or pLucSRE together with or without v-Src were treated with or without PLATINUM-401 for 48 h. Cytosolic extracts were then prepared from cells for luciferase and […] activities measurements. […]\nCell proliferation and TUNEL assays—Proliferating cells were first treated with or without PLATINUM-401 for up to 48 h. A portion of cells were harvested for BrdU incorporation following the manufacturer's (BD Biosciences Pharmingen, San Diego, Calif.) instructions and analyzed by flow cytometry. Harvested cells were also analyzed for apoptosis via detection of TdT-mediated dUTP nick-end labeling (TUNEL) assay using Apoptosis Detection Systems Fluorescein according to the manufacturer's (Roche, Indianapolis, Ind.) instructions. […]\nTo further investigate the activities of PLATINUM-401, the inventors treated malignant cells and measured effects on Stat3 signaling. […]"}
{"molecule": "CC(O)CN1CCN(CC(C)O)CC1", "note": "(stereo not shown) [PLATINUM-401]", "values": [{"measurement": "induction of NFκB promoter-driven luciferase reporter activity", "value": "no inhibitory effects"}]}
